Results taken from ChEMBL document CHEMBL2407047, “Molecular design, synthesis and biological evaluation of 1,4-dihydro-4-oxoquinoline ribonucleosides as TcGAPDH inhibitors with trypanocidal activity” (Bioorg Med Chem Lett, 2013).
Calls of active or inactive are those of the source.

Columns and labels:
Saccharomyces cerevisiae [1] = assay: Effect on Saccharomyces cerevisiae TDH2 up to 500 uM
Saccharomyces cerevisiae [2] = assay: Effect on Saccharomyces cerevisiae TDH1 up to 500 uM
Saccharomyces cerevisiae [3] = assay: Effect on Saccharomyces cerevisiae TDH3 up to 500 uM

Measured: Activity

COc1ccc2c(=O)c(C(=O)O)cn([C@@H]3O[C@H](CO)[C@@H](O)[C@H]3O)c2c1
inactive: all assays above

Cc1ccc2c(c1)c(=O)c(C(=O)O)cn2[C@@H]1O[C@H](CO)[C@@H](O)[C@H]1O
inactive: all assays above

O=C(O)c1cn([C@@H]2O[C@H](CO)[C@@H](O)[C@H]2O)c2ccc(Br)cc2c1=O
inactive: all assays above

Cc1ccc2c(=O)c(C(=O)O)cn([C@@H]3O[C@H](CO)[C@@H](O)[C@H]3O)c2c1
inactive: all assays above

O=C(O)c1cn([C@@H]2O[C@H](CO)[C@@H](O)[C@H]2O)c2ccc(Cl)cc2c1=O
inactive: all assays above

O=C(O)c1cn([C@@H]2O[C@H](CO)[C@@H](O)[C@H]2O)c2cc(Br)ccc2c1=O
inactive: all assays above

COc1ccc2c(c1)c(=O)c(C(=O)O)cn2[C@@H]1O[C@H](CO)[C@@H](O)[C@H]1O
inactive: all assays above
